Results: paper PMC8808171, “Nonselective TRPC channel inhibition and suppression of aminoglycoside-induced premature termination codon readthrough by the small molecule AC1903” (The Journal of Biological Chemistry, 2022)
pIC50: −log10 of the molar value.

Columns and labels:
[1] = tested on: TRPC4 channels; set-up: method as in PubChem AID 434942 – SID 865888; conditions: ref PubChem AID 434942 – SID 865888; cited from earlier work
[2] = molecular target: T1, TRPV4:V4 (Homo sapiens, UniProt Q9HBA0); assay: [Ca2+]i recordings (Fura-2), TRPV4:V4 in CHO cells; format: cell-based; conditions: activator 4α-PDD
T1 construct: expressed in transfected cells
T1 sequence (Q9HBA0 whole entry): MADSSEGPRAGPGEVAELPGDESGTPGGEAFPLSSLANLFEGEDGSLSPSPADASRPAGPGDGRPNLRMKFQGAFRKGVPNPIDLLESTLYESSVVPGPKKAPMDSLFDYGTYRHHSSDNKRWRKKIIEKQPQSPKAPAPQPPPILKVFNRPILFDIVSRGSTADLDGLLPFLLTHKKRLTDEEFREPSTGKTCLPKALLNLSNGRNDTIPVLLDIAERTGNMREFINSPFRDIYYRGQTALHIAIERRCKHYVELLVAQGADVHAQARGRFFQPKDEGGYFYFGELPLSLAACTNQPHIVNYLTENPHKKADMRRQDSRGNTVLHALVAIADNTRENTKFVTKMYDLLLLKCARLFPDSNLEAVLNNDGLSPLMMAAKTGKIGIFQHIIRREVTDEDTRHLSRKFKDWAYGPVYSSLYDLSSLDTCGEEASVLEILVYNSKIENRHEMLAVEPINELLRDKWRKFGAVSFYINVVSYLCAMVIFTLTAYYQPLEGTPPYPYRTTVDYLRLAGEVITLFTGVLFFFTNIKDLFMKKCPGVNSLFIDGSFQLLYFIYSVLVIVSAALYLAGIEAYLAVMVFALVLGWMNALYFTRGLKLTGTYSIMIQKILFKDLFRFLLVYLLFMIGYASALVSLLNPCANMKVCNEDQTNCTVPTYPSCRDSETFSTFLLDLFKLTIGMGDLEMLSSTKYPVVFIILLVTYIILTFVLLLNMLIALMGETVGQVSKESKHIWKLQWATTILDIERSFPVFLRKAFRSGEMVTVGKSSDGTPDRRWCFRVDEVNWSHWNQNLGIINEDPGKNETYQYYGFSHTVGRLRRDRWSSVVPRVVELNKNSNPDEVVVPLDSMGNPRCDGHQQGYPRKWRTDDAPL
Procedure: Based on the findings described above, we wondered whether AC1903—which is typically used as a TRPC5 inhibitor at concentrations of 30–100 μM in cellular assays ([29], [56])—might have limited selectivity for TRPC5 channels and whether its effect on intracellular G418 levels and PTC readthrough might be the consequence of inhibition of other or multiple targets. All well-characterized TRPC channel inhibitors reported to date modulate multiple TRP(C) channels ([34], [35], [36]). […] Because limited data for the selectivity of AC1903 are available in the public domain, we decided to profile AC1903 against a selection of calcium-permeable cation channels by intracellular calcium ([Ca^2+]i) recordings using well-characterized cell lines and TRP channel activators ([46], [57], [58]), and the Ca^2+ indicator Fura-2. In these assays, cells (HEK 293, HEK T-REx, or CHO) overexpressing the relevant ion channel protein and loaded with Fura-2 AM (a cell-permeable precursor of Fura-2) were preincubated with various concentrations of AC1903 or vehicle (DMSO) for 30 min. Then, changes in ratiometric fluorescence (from background) were recorded upon addition of the respective ion channel activator. […]

## c1ccc(Cn2c(NCc3ccco3)nc3ccccc32)cc1 [AC1903]
[1]
  pIC50: 6.22
[2]; CHO
  pIC50: 4.72
[2]
  Hill slope: -1.7
